Experimental data reported in patent publication EP1642577A1, “Derivatives of aryl (or heteroaryl) azolylcarbinols for the treatment of central neuropathic pain” (Laboratorios Dr. Esteve S.A., priority 2004, dated 2006).

Test system: Rats operated on lnfraorbital nerve
Test: Rats operated on infraorbital nerve (ligature): response/nociceptive threshold measured as aversive reactions
Type: in vivo
Excerpt: Figures 1 and 2: Refering to example 7 they show the high efficacy of Cizolirtine in a model for the central neuropathic pain, the ligature of the infraorbital nerve.
Rats operated on lnfraorbital nerve
Rats were operated placing a ligature around the infraorbital nerve on one side. Following this operation the response threshold in (g) is reduced considerably if comparing the ipsilateral and contralateral side to the response pre ligature (Fig. 2) measured as aversive reactions. […] Saline produced no modification of the nociceptive threshold.

SMILES: CN(C)CCOC(c1ccccc1)c1ccnn1C (racemic) [Cizolirtine, (±)-5-{α-[2-(dimethylamino)ethoxy]benzyl}-1-methyl-1H-pirazole]
- nociceptive threshold (%) (i.p., 80 mg/kg, ipsilateral side, rats with ligature around the infraorbital nerve, Fig. 1): strong inducement of the nociceptive threshold
- efficacy in a model for the central neuropathic pain, the ligature of the infraorbital nerve (legend of Figures 1 and 2, referring to example 7): high efficacy
